Assay [1] relates to Beet Armyworm (Spodoptera exigua, LAPHEG). The experiment in a line: Bioassay on Beet Armyworm (BAW), 128-well diet tray assay. Format: in vivo. In short, it runs like this:
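Artificial diet surface-treated with 50 μg/cm^2 test molecule in 90:10 acetone-water, dried, then infested with one to five second instar larvae per well. Held covered and vented at 25° C., 14:10 light-dark for five to seven days; percent mortality recorded per well and averaged over eight wells.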

The subject of assay [2] is Cabbage Looper (Trichoplusia ni, TRIPNI). As to the kind of experiment: Bioassay on Cabbage Looper (CL), 128-well diet tray assay. The following applies: Trichoplusia ni. Format: in vivo. The essentials: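 Using eight wells per molecule, artificial diet was dosed at 50 μg/cm^2 with compound in 90:10 acetone-water and dried before one to five second-instar larvae were added per well. Covered vented trays were kept at 25° C. with 14:10 light-dark for five to seven days, then per-well percent mortality was recorded and averaged.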

Setting [3] is: Beet Armyworm, 128-well diet tray assay, read-out: BAW rating.
Setting [4] is: Cabbage Looper, 128-well diet tray assay, read-out: CL rating.
Setting [5] is: Species BAW (Beet Armyworm), read-out: BAW (Biological Results, rating).
Where [6] appears, read: Species CL (Cabbage Looper), read-out: CL (Biological Results, rating).

Read-outs that look alike come from different tables or passages of the source.

Take `O=C(Nc1ccc(F)cc1)c1cc(NC(=O)C2C(c3cc(Cl)cc(Cl)c3)C2(Cl)Cl)ccc1Cl` (stereo not drawn) [F629, 2-Chloro-5-(2,2-dichloro-3-cis-(3,5-dichlorophenyl)cyclopropane-1-carboxamido)-N-(4-fluorophenyl)benzamide]: the pest or weed control at 50 µg/cm2 in assay [1] (setting [3]) and in assay [2] (setting [4]) was 50 to 100% each time.

Turning to `Nc1c(F)ccc(NC(=O)c2cc(NC(=O)C3C(c4ccc(F)c(C(F)(F)F)c4)C3(Cl)Cl)ccc2Cl)c1F` (stereo not drawn) [F624, N-(3-Amino-2,4-difluorophenyl)-2-chloro-5-(2,2-dichloro-3-trans-(4-fluoro-3-(trifluoromethyl)phenyl)cyclopropane-1-carboxamido)benzamide], the pest or weed control at 50 µg/cm2 in assay [1] (setting [3]) and in assay [2] (setting [4]) was 50 to 100% in each case.

Turning to `CN(C(=O)c1cc(NC(=O)[C@H]2[C@H](c3cc(Cl)cc(Cl)c3)C2(Br)Br)ccc1Cl)c1ccc(F)cc1` (relative stereo) [PF7, trans-2-Chloro-5-(2,2-dibromo-3-(3,5-dichlorophenyl)cyclopropane-1-carboxamido)-N-(4-fluorophenyl)-N-methylbenzamide], the pest or weed control at 50 µg/cm2 in assay [1] (setting [3]) and in assay [2] (setting [4]) was 50 to 100% in each case.

Regarding `O=C(Nc1nc2cc(Cl)ccc2o1)c1cc(NC(=O)C2C(c3cc(Cl)cc(Cl)c3)C2(Cl)Cl)ccc1Cl` (stereo not drawn) [F448, 2-Chloro-N-(5-chlorobenzo[d]oxazol-2-yl)-5-(trans)-2,2-dichloro-3-(3,5-dichlorophenyl)cyclopropane-1-carboxamido)benzamide], the pest or weed control at 50 µg/cm2 in assay [1] (setting [3]) and in assay [2] (setting [4]) was 50 to 100% throughout.

On to `O=C(Nc1cnns1)c1cc(NC(=O)[C@H]2[C@H](c3cc(Cl)cc(Cl)c3)C2(Cl)Cl)ccc1Cl` (relative stereo) [F138, trans-2-Chloro-5-(2,2-dichloro-3-(3,5-dichlorophenyl)cyclopropane-1-carboxamido)-N-(1,2,3-thiadiazol-5-yl)benzamide], for which the pest or weed control at 50 µg/cm2 in assay [1] (setting [5]) and in assay [2] (setting [6]) was 50 to 100% in each case.

For `O=C(Nc1ccc2c(c1)C(=O)NC2=O)c1cc(NC(=O)[C@H]2[C@H](c3cc(Cl)cc(Cl)c3)C2(Cl)Cl)ccc1Cl` (relative stereo) [F439, trans-2-Chloro-5-(2,2-dichloro-3-(3,5-dichlorophenyl)cyclopropane-1-carboxamido)-N-(1,3-dioxoisoindolin-5-yl)benzamide], the pest or weed control at 50 µg/cm2 in assay [1] (setting [3]) and in assay [2] (setting [4]) was 50 to 100% in each case.

Turning to `N#Cc1cc(F)ccc1NC(=O)c1cc(NC(=O)[C@H]2[C@H](c3ccc(F)c(Cl)c3)C2(Cl)Cl)ccc1Cl` (relative stereo) [F192, trans-2-Chloro-N-(2-cyano-4-fluorophenyl)-5-(2,2-dichloro-3-(3-chloro-4-fluorophenyl)cyclopropane-1-carboxamido)benzamide], the pest or weed control at 50 µg/cm2 in assay [1] (setting [5]) and in assay [2] (setting [6]) was 50 to 100% in each case.

As for `CN(C(=O)c1cc(NC(=O)[C@H]2[C@H](c3cc(Cl)c(Cl)c(Cl)c3)C2(Cl)Cl)ccc1Cl)c1ccc(C#N)cc1F` (relative stereo) [F108, trans-2-Chloro-N-(4-cyano-2-fluorophenyl)-5-(2,2-dichloro-3-(3,4,5-trichlorophenyl)cyclopropane-1-carboxamido)-N-methylbenzamide], the pest or weed control at 50 µg/cm2 in assay [1] (setting [5]) and in assay [2] (setting [6]) was 50 to 100% in each case.

For `Cc1c(Cl)cc([C@H]2[C@H](C(=O)Nc3ccc(Cl)c(C(=O)Nc4ccc(F)cc4)c3)C2(Cl)Cl)cc1Cl` (relative stereo) [F119, trans-2-Chloro-5-(2,2-dichloro-3-(3,5-dichloro-4-methylphenyl)cyclopropane-1-carboxamido)-N-(4-fluorophenyl)benzamide], the pest or weed control at 50 µg/cm2 in assay [1] (setting [5]) and in assay [2] (setting [6]) was 50 to 100% in each case.

As to `O=C(Nc1ccccn1)c1cc(NC(=O)[C@H]2[C@H](c3cc(Cl)cc(Cl)c3)C2(Cl)Cl)ccc1Cl` (relative stereo) [F78, trans-2-Chloro-5-(2,2-dichloro-3-(3,5-dichlorophenyl)cyclopropane-1-carboxamido)-N-(pyridin-2-yl)benzamide], the pest or weed control at 50 µg/cm2 in assay [1] (setting [5]) and in assay [2] (setting [6]) was 50 to 100% in each case.

As to `CC(C)(C)CC(=O)Nc1ccc(NC(=O)c2cc(NC(=O)[C@H]3[C@H](c4cc(Cl)cc(Cl)c4)C3(Cl)Cl)ccc2Cl)cc1` (relative stereo) [PF164, trans-2-Chloro-5-(2,2-dichloro-3-(3,5-dichlorophenyl)cyclopropane-1-carboxamido)-N-(4-(3,3-dimethylbutanamido)phenyl)benzamide], the pest or weed control at 50 µg/cm2 in assay [1] (setting [3]) and in assay [2] (setting [4]) was 50 to 100% throughout.

`CC(C)(C)OC(=O)N(C(=O)OC(C)(C)C)c1cc(NC(=O)c2cc(NC(=O)[C@H]3[C@H](c4ccc(Cl)c(Cl)c4)C3(Cl)Cl)ccc2Cl)c(F)cc1F` [F520, tert-Butyl-N-((tert-butoxy)carbonyl)-N-(5-(2-chloro-5-((1R,3R)-2,2-dichloro-3-(3,4-dichlorophenyl)cyclopropane-1-carboxamido)benzamido)-2,4-difluorophenyl)carbamate]: the pest or weed control at 50 µg/cm2 in assay [1] (setting [3]) and in assay [2] (setting [4]) was 50 to 100% in each case.

Regarding `O=C(Nc1ccc(C(F)(F)F)cc1)c1cc(NC(=O)[C@H]2[C@H](c3cc(Cl)cc(Cl)c3)C2(Cl)Cl)ccc1Cl` (relative stereo) [F6, trans-2-Chloro-5-(2,2-dichloro-3-(3,5-dichlorophenyl)cyclopropane-1-carboxamido)-N-(4-(trifluoromethyl)phenyl)benzamide], the pest or weed control at 50 µg/cm2 in assay [1] (setting [5]) and in assay [2] (setting [6]) was 50 to 100% throughout.

As for `N#Cc1cc(F)ccc1NC(=O)c1cc(NC(=O)[C@H]2[C@H](c3cc(Cl)c(Cl)c(Cl)c3)C2(Cl)Cl)ccc1Cl` (relative stereo) [F191, trans-2-Chloro-N-(2-cyano-4-fluorophenyl)-5-(2,2-dichloro-3-(3,4,5-trichlorophenyl)cyclopropane-1-carboxamido)benzamide], the pest or weed control at 50 µg/cm2 in assay [1] (setting [5]) and in assay [2] (setting [6]) was 50 to 100% throughout.

As for `Cc1c(F)ccc(NC(=O)c2cc(NC(=O)[C@H]3[C@H](c4cc(Cl)cc(Cl)c4)C3(Cl)Cl)ccc2Cl)c1F` (relative stereo) [PF55, trans-2-Chloro-5-(2,2-dichloro-3-(3,5-dichlorophenyl)cyclopropane-1-carboxamido)-N-(2,4-difluoro-3-methylphenyl)benzamide], the pest or weed control at 50 µg/cm2 in assay [1] (setting [3]) and in assay [2] (setting [4]) was 50 to 100% each time.

For the compound `Cc1cc(F)ccc1NC(=O)c1cc(NC(=O)[C@H]2[C@H](c3cc(Cl)c(Cl)c(Cl)c3)C2(Cl)Cl)ccc1Cl` (relative stereo) [PF47, trans-2-Chloro-5-(2,2-dichloro-3-(3,4,5-trichlorophenyl)cyclopropane-1-carboxamido)-N-(4-fluoro-2-methylphenyl)benzamide], the pest or weed control at 50 µg/cm2 in assay [1] (setting [3]) and in assay [2] (setting [4]) was 50 to 100% in each case.

`CC(=O)Nc1ccc(NC(=O)c2cc(NC(=O)[C@H]3[C@H](c4cc(Cl)cc(Cl)c4)C3(Cl)Cl)c(Cl)cc2Cl)cc1` (relative stereo) [F255, trans-N-(4-Acetamidophenyl)-2,4-dichloro-5-(2,2-dichloro-3-(3,5-dichlorophenyl)cyclopropane-1-carboxamido)benzamide]: the pest or weed control at 50 µg/cm2 in assay [1] (setting [5]) was in the range of 50 to 100%; in assay [2] (setting [6]), 0 to 50%.

Consider `O=C(Nc1ccc(F)cc1)c1cc(NC(=O)[C@H]2[C@H](c3cc(F)cc(Cl)c3)C2(Cl)Cl)ccc1Cl` (relative stereo) [PF1, trans-2-Chloro-5-(2,2-dichloro-3-(3-chloro-5-fluorophenyl)cyclopropane-1-carboxamido)-N-(4-fluorophenyl)benzamide], for which the pest or weed control at 50 µg/cm2 in assay [1] (setting [3]) and in assay [2] (setting [4]) was 50 to 100% in each case.

As for `Nc1c(F)ccc(NC(=O)c2cc(NC(=O)C3C(c4cc(F)cc(Br)c4)C3(Cl)Cl)ccc2Cl)c1F` (stereo not drawn) [F622, N-(3-Amino-2,4-difluorophenyl)-5-(3-trans-(3-bromo-5-fluorophenyl)-2,2-dichlorocyclopropane-1-carboxamido)-2-chlorobenzamide], the pest or weed control at 50 µg/cm2 in assay [1] (setting [3]) and in assay [2] (setting [4]) was 50 to 100% each time.

Turning to `C[S+]([O-])c1ccc(NC(=O)c2cc(NC(=O)[C@H]3[C@H](c4cc(Cl)cc(Cl)c4)C3(Cl)Cl)ccc2Cl)cc1` (relative stereo) [F159, trans-2-Chloro-5-(2,2-dichloro-3-(3,5-dichlorophenyl)cyclopropane-1-carboxamido)-N-(4-(methylsulfinyl)phenyl)benzamide], the pest or weed control at 50 µg/cm2 in assay [1] (setting [5]) and in assay [2] (setting [6]) was 50 to 100% in each case.

For `O=C(Nc1c(F)cccc1F)c1cc(NC(=O)[C@H]2[C@H](c3cc(F)cc(Cl)c3)C2(Cl)Cl)ccc1Cl` (relative stereo) [F160, trans-2-Chloro-5-(2,2-dichloro-3-(3-chloro-5-fluorophenyl)cyclopropane-1-carboxamido)-N-(2,6-difluorophenyl)benzamide], the pest or weed control at 50 µg/cm2 in assay [1] (setting [5]) and in assay [2] (setting [6]) was 50 to 100% in each case.

Consider `N#Cc1ccc(NC(=O)c2cc(NC(=O)[C@H]3[C@H](c4ccc(Cl)c(Cl)c4)C3(Cl)Cl)ccc2F)c(F)c1` (relative stereo) [F94, trans-N-(4-Cyano-2-fluorophenyl)-5-(2,2-dichloro-3-(3,4-dichlorophenyl)cyclopropane-1-carboxamido)-2-fluorobenzamide], for which the pest or weed control at 50 µg/cm2 in assay [1] (setting [5]) and in assay [2] (setting [6]) was 50 to 100% each time.

For the origin of these results see patent US10219516B2, “Molecules having pesticidal utility, and intermediates, compositions, and processes, related thereto” (priority 2015, dated 2019).
